pIC50, pKi: −log10 of the molar value.
What was measured:
[1] = target: Cytochrome P450 2C19 (Homo sapiens, UniProt P33261)
[2] = target: 5-hydroxytryptamine receptor 1B (Rattus norvegicus, UniProt P28564); format: cell membranes, Wistar, Cerebral cortex, Membrane
[3] = target: T1, C-C chemokine receptor type 4 (Homo sapiens, UniProt P51679); format: cell membranes, Chem-1, Membrane; conditions: chem-1
T1 sequence (P51679 whole entry): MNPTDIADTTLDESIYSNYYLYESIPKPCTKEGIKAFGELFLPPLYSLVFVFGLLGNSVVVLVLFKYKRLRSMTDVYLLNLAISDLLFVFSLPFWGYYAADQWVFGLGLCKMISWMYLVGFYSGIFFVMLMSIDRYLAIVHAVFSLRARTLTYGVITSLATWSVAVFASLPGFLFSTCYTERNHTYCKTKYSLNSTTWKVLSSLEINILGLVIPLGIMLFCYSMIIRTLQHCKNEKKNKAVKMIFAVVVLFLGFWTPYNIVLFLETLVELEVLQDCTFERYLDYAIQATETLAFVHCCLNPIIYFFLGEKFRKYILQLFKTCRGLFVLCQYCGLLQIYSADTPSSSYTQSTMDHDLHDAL

[4] = target: T2, Alpha-2A adrenergic receptor (Homo sapiens, UniProt P08913); format: cell membranes, Sf9, Membrane; conditions: for IC50: sf9
T2 sequence (P08913 whole entry): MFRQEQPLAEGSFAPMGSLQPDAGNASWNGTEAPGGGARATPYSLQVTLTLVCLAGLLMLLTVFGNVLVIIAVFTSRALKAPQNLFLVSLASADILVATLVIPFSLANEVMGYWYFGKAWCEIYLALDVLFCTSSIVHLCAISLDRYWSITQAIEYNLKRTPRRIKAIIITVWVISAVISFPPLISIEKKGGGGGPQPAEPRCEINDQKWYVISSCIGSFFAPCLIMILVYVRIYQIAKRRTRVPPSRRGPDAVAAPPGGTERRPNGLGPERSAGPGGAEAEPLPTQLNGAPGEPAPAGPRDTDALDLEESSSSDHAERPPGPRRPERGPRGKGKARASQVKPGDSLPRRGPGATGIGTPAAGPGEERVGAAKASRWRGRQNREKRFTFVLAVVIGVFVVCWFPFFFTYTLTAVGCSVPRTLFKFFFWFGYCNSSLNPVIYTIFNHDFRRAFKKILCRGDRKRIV

[5] = target: Receptor tyrosine-protein kinase erbB-2 (Homo sapiens, UniProt P04626); assay: biochemical; format: cell-based, Insect cells; conditions: for IC50: insect cells;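 as to all read-outs here: inhibition of HER2 kinase enzyme activity, measured with Poly(Glu:Tyr) as the phosphorylation substrate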
Sequence of Receptor tyrosine-protein kinase erbB-2 (P04626 whole entry): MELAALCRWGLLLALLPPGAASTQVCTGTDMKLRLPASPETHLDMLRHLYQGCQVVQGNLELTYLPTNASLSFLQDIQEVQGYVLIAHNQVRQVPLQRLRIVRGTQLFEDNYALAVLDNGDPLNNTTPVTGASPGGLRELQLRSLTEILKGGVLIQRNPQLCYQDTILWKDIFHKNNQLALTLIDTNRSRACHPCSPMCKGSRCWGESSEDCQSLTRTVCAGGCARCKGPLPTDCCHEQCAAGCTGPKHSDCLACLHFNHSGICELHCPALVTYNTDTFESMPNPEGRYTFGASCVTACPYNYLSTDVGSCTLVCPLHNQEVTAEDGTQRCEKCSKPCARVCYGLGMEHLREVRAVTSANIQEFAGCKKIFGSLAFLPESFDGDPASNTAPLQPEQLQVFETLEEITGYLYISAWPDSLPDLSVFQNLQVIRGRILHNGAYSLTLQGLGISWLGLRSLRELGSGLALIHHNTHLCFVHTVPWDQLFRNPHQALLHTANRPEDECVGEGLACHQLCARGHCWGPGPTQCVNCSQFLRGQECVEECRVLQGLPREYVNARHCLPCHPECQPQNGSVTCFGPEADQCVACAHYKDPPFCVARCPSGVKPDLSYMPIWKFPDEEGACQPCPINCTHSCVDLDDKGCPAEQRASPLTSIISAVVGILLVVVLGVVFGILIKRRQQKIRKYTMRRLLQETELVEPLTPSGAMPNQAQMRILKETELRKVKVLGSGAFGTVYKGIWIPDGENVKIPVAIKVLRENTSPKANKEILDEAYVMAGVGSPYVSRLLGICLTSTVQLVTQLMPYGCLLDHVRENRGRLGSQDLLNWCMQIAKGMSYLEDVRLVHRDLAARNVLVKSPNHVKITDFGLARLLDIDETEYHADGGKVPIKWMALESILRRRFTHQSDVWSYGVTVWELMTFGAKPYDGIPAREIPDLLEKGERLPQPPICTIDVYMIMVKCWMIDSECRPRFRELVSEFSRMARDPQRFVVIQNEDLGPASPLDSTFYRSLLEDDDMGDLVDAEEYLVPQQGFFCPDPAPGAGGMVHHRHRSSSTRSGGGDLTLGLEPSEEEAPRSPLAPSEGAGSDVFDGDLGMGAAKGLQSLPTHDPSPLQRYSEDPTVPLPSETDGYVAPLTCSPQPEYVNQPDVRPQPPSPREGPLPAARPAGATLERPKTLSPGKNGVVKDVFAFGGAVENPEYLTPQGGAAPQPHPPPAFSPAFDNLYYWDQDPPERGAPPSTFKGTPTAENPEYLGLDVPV

[6] = target: Cytochrome P450 2C9 (Homo sapiens, UniProt P11712)
Sequence of Cytochrome P450 2C9 (P11712 whole entry): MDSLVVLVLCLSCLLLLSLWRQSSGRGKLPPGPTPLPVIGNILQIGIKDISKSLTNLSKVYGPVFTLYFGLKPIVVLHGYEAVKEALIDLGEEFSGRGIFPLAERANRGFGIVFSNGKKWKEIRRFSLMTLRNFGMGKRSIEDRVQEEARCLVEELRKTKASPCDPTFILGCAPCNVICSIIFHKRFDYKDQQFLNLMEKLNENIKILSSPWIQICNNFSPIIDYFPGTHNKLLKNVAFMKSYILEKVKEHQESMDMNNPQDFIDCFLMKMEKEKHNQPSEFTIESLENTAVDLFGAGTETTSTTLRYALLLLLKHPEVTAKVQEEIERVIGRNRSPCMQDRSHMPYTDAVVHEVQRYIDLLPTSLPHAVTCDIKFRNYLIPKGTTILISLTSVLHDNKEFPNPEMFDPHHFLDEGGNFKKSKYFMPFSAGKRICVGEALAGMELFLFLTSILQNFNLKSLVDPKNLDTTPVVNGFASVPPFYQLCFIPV

[7] = target: T3, Androgen receptor (Rattus norvegicus, UniProt P15207)
T3 sequence (P15207 whole entry): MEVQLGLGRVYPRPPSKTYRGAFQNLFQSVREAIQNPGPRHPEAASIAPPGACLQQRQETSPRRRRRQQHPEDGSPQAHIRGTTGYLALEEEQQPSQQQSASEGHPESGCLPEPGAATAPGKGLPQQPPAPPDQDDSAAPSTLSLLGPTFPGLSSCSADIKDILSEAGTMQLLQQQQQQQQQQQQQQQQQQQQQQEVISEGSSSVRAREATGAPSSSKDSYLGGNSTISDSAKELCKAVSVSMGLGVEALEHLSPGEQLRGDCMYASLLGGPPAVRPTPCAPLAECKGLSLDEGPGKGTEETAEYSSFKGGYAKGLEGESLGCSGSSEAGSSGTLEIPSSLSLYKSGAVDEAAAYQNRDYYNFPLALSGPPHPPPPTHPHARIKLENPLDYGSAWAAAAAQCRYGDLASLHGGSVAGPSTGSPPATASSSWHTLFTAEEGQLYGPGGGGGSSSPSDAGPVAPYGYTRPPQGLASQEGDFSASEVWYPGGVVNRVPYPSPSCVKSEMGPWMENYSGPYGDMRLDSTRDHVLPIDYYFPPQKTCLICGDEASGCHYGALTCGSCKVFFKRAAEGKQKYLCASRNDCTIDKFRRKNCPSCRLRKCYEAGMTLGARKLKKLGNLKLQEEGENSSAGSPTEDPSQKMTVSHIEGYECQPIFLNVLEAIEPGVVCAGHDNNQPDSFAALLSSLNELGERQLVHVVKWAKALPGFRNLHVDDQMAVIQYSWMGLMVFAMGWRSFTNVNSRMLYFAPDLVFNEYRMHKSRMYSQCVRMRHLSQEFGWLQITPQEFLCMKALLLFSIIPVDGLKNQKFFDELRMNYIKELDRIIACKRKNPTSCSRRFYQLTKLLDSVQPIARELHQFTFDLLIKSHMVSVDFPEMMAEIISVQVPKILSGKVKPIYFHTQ

[8] = target: Cytochrome P450 2D6 (Homo sapiens, UniProt P10635)
Sequence of Cytochrome P450 2D6 (P10635 whole entry): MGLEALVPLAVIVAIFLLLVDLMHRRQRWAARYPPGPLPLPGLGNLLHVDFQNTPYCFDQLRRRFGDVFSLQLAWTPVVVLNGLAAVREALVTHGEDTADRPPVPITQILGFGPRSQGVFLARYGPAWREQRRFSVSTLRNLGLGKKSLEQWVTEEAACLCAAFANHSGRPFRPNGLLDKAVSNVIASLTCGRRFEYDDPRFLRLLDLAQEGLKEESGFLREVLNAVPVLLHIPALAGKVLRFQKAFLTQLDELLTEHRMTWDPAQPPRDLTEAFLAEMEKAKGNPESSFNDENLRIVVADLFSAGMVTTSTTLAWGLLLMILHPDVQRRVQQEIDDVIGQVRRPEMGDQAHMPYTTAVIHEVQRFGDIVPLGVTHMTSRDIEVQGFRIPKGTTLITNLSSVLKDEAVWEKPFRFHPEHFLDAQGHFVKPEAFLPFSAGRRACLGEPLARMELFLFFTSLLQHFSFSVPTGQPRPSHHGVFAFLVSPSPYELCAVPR
Also: in other assays of this panel Not Active means under 50% inhibition at 10 µM.

Sequence of 5-hydroxytryptamine receptor 1B (P28564 whole entry): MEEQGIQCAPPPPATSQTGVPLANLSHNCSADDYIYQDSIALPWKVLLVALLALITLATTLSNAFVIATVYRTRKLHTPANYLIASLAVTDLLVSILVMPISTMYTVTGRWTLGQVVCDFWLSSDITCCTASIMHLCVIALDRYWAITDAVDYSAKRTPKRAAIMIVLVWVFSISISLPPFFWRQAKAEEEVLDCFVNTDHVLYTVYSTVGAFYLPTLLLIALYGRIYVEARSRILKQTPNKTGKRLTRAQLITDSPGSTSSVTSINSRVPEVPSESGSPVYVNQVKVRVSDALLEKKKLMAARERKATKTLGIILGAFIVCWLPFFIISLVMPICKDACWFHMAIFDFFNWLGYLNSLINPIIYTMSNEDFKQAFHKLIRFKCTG
Sequence of Cytochrome P450 2C19 (P33261 whole entry): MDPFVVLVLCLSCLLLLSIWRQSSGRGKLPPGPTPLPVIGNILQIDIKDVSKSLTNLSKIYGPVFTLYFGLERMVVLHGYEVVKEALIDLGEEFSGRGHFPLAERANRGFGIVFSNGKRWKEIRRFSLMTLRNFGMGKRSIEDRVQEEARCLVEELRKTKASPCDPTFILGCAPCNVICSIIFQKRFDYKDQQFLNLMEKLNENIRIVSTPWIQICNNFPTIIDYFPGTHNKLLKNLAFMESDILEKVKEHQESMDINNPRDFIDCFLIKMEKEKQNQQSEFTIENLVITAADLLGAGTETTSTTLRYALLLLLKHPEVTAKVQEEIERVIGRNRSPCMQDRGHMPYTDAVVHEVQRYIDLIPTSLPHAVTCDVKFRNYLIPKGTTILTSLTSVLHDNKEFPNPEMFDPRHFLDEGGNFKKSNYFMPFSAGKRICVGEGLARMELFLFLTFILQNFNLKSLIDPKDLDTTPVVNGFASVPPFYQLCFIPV

With `CC(NC(C)(C)C)C(=O)c1cccc(Cl)c1` (centres undefined) [BUPROPION] the pIC50 [1] was 5.70, the IC50 [2] was “Not Active” and the IC50 [3] was “Not Active”. The IC50 [4] was “Not Active” and the IC50 [5] was “Not Active”.
`Cc1cc(C(C#N)c2ccc(Cl)cc2)c(Cl)cc1NC(=O)c1cc(I)cc(I)c1O` (centres undefined) [CLOSANTEL] was tested, and the IC50 [2] was “Not Active”, the IC50 [3] was “Not Active” and the pIC50 [6] was 5.70. The IC50 [4] was “Not Active” and the pIC50 ([5]; read-out: IC50) was 5.61.
`CC(C)[C@@]1(NC(=O)[C@@H]2C[C@@H]3c4cccc5[nH]cc(c45)C[C@H]3N(C)C2)O[C@@]2(O)[C@@H]3CCCN3C(=O)[C@H](Cc3ccccc3)N2C1=O.CS(=O)(=O)O` [DIHYDROERGOCRISTINE MESYLATE] gave a pIC50 [1] of 5.52, a pIC50 ([2]; read-out: IC50) of 7.62 and a pKi ([2]; read-out: Ki) of 7.96. For the same compound, the IC50 [3] was “Not Active”, the pIC50 [6] was 5.52 and the pIC50 ([4]; read-out: IC50) was 8.70. For the same compound, the pKi ([4]; read-out: Ki) was 9.13 and the IC50 [5] was “Not Active”.
In the case of `CCCCc1nc(Cl)c(CO)n1Cc1ccc(-c2ccccc2-c2nnn[nH]2)cc1` [LOSARTAN], the IC50 [2] was “Not Active”, the IC50 [3] was “Not Active” and the pIC50 [6] was 5.54. The IC50 [4] was “Not Active” and the IC50 [5] was “Not Active”.
In the case of `C1CCC(C(CC2CCCCN2)C2CCCCC2)CC1` (centres undefined) [PERHEXILINE], the IC50 [2] was “Not Active”, the IC50 [7] was “Not Active” and the IC50 [3] was “Not Active”. The pIC50 [8] was 6.03, the IC50 [4] was “Not Active” and the IC50 [5] was “Not Active”.
